Data reported in patent US5716950A, “Diazacycloalkanealkylsulfonamide derivatives” (Nippon Shoji Kabushiki Kaisha, priority 1994, dated 1998).
Like-named read-outs stand apart in the source and are kept apart here.

Experiments:
[1] = tested on: passive cutaneous anaphylaxis (PCA); experiment: Activity of suppressing passive cutaneous anaphylaxis (PCA); assay type: in vivo, Male Wistar rats
Method: Test compounds were examined on their antiallergic activities. […] After 48 hours, 1.0 ml of 0.5 % Evans Blue saline solution containing DNP.BSA (1 mg in protein) was injected through the tail vein to induce allergic reaction. After 30 minutes, the rats were sacrificed by bleeding and the skin of back where dye was leaked out was flayed and put it into 20 ml test tube with ground stopper. Thereto was added 1.0 ml of 1N KOH aqueous solution and then it was allowed to stand at 37° C. in incubator overnight for lysing. To this solution was added 8.3 ml of a mixture of acetone and 0.6N phosphoric acid (13:5) and the mixture was mixed well and then was filtered to remove the insoluble materials.
The test compounds were administered orally 1 hour before the antigen challenge. Suppression rate was expressed by percentage to the value in control where 0.5% aqueous methylcellulose solution was orally administered.

[2] = tested on: extracted ileum (histamine contraction); experiment: Antihistaminic activity: suppression of histamine-induced contraction of extracted ileum; parameters: species or system Female Hartley guinea pig; conditions: histamine 3×10^-7 M; guinea pig ileum; 50% suppression of contraction; read-out: anti-His in extracted ileum EC50
Method: Female Hartley guinea pig (weighing 500 to 650 g) were sacrificed and the ileum (length of about 10 to 25 cm) was extracted from the ileocecum to prepare a specimen (length of 3 cm). […] After allowing to stand for 60 minutes to make the specimen stable, a histamine (3×10^-7 M) was applied to the specimen at single application. Contraction of the specimen was determined and recorded using isotonic transducer. After repeating application of a histamine to make the contraction constant, a diluted solution of the test compound was applied. Three minutes after the application, a histamine was then added and an activity of suppressing contraction was examined.

male ICR mice = experiment: Toxicity Test (mouse acute toxicity, minimum lethal dose); assay type: in vivo; conditions: po, observed for 24 hours, head prints (10 mg/kg-po)
Source text: The test compounds were orally administered to male ICR mice (weighing to 30 g) after fasting overnight. […] The results were expressed by minimum lethal dose. Toxicity of any compounds of the present invention were weaker than that of ketotifen which was a reference compound.

[3] = tested on: mouse biphasic allergic dermal reaction; experiment: Mouse Biphasic Allergic Dermal Reaction; assay type: in vivo, Female Balb/c mice; conditions: for inhibition in vivo at 3 mg/kg / inhibition in vivo at 10 mg/kg / inhibition in vivo at 30 mg/kg / inhibition in vivo at 0.1 mg/kg / inhibition in vivo at 1 mg/kg: Mus musculus; for suppression of the immediate allergic reaction (in words): edema after 1 hour; for suppression of the late allergic reaction (in words): edema after 24 hours
Method: Female Balb/c mice (weighing 18 to 25 g) were subjected to passive sensitization by intravenous administration of 1 ml of anti-DNP monoclonal IgE antibody showing 1:1024 of antibody titer. 24 hours after the sensitization, 25 μl of 0.15% dinitrofluorobenzene (DNFB) were applied to both sides of right and left auricles of mouse for inducing allergic reactions. Thickness of auricles were measured using Dial Thickness Gauge before the challenge with DNFB, and 1 and 24 hours after the challenge. And then, increase in thickness of auricles at 1 hour after the challenge (edema caused by immediate allergic reaction) and that at 24 hours after the challenge (edema caused by late allergic reaction) were calculated against the thickness of auricles before the challenge with DNFB, respectively.
Suppression rate was expressed by relative ratio (%) to the value in control in which a solvent was administered.
Test compounds, diphenhydramine which is a existing classical antihistamic drug, amlexanox which is an antiallergic drug and dexamethasone which is a steroidal drug were administered orally (partly intraperitoneally) once before antigen challenge.
The above test was performed by using a mouse biphasic allergic dermal reaction model which was a new model [see, Sakurai T, Inagaki, N. and Nagai, H Life Sci., 54, PL291-295 (1994)]. In this model, the immediate allergic reaction was induced by mediator release from mast cell at 1 hour after the challenge, and the late allergic reaction with inflammatory cells such as eosinophil (edema after 24 hours) was induced after 24 hours from the challenge.

[4] = Rattus norvegicus, po, 1 h, 10 mg/kg-po, 1 hour before antigen challenge, read-out: % suppression of rat PCA
[5] = po, 1 h, read-out: immediate edema (1 hr) suppression (%)
[6] = po, 24 h, read-out: late edema (24 hr) suppression (%)
[7] = 1 h, 1.0 mg/kg, oral, read-out: immediate edema (1 hr) suppression (%)
[8] = 24 h, 0.1 mg/kg, oral, read-out: late edema (24 hr) suppression (%)
[9] = 24 h, 1.0 mg/kg, oral, read-out: late edema (24 hr) suppression (%)

| EC50 [2] [nM] | Structure (SMILES) | inhibition in vivo at 10 mg/kg [1, 4] [%] | also measured |
| --- | --- | --- | --- |
| 350 | O=S(=O)(CCCCCCCCCCN1CCN(C(c2ccc(F)cc2)c2ccccn2)CC1)NC1CC1 (stereo not shown) [Example 58] | 76.5 |  |
| 560 | CCCNS(=O)(=O)CCCCCCN1CCN(C(c2ccccc2)c2ccc(Cl)cc2)CC1 (stereo not shown) [Example 36] | 77.5 |  |
| 460 | CNS(=O)(=O)CCCCCN1CCN(C(c2ccccc2)c2ccccc2)CC1 [Example 19] | 78 |  |
|  | CC(C)c1ccc2oc3nc(N)c(C(=O)O)cc3c(=O)c2c1 [amlexanox, reference compound] |  | inhibition in vivo at 3 mg/kg [3, 5]: 38.5%; inhibition in vivo at 10 mg/kg [3, 5]: 38.5%; inhibition in vivo at 30 mg/kg [3, 5]: 50%; inhibition in vivo at 3 mg/kg [3, 6]: 12.1%; inhibition in vivo at 30 mg/kg [3, 6]: 6.1%; suppression of the immediate allergic reaction (in words) [3]: suppressed the immediate allergic reaction; suppression of the late allergic reaction (in words) [3]: did not suppress the late allergic reaction |
|  | C[C@@H]1C[C@H]2[C@@H]3CCC4=CC(=O)C=C[C@]4(C)[C@@]3(F)[C@@H](O)C[C@]2(C)[C@@]1(O)C(=O)CO [dexamethasone, reference compound] |  | inhibition in vivo at 0.1 mg/kg ([3]; ip, 1 h, 0.1 mg/kg (i.p.), read-out: immediate edema (1 hr) suppression (%)): 32.4%; inhibition in vivo at 1 mg/kg ([3]; ip, 1 h, dexamethasone 1.0 mg/kg, (i.p.) printed only at the 0.1 line, read-out: immediate edema (1 hr) suppression (%)): 32.4%; inhibition in vivo at 3 mg/kg ([3]; ip, 1 h, dexamethasone 3.0 mg/kg, (i.p.) printed only at the 0.1 line, read-out: immediate edema (1 hr) suppression (%)): 11.8%; inhibition in vivo at 0.1 mg/kg ([3]; ip, 24 h, 0.1 mg/kg (i.p.), read-out: late edema (24 hr) suppression (%)): 34.3%; inhibition in vivo at 1 mg/kg ([3]; ip, 24 h, dexamethasone 1.0 mg/kg, (i.p.) printed only at the 0.1 line, read-out: late edema (24 hr) suppression (%)): 42.9%; inhibition in vivo at 3 mg/kg ([3]; ip, 24 h, dexamethasone 3.0 mg/kg, (i.p.) printed only at the 0.1 line, read-out: late edema (24 hr) suppression (%)): 45.7%; suppression of the late allergic reaction (in words) [3]: showed the strong activity of suppressing the late allergic reaction |
| 210 | O=S(=O)(CCCCCCN1CCN(C(c2ccccc2)c2ccccc2)CC1)NC1CCCC1 [Example 141] | 87.4 |  |
| 300 | O=S(=O)(CCCCCCN1CCN(C(c2ccccc2)c2ccccc2)CC1)NC1CC1 [Example 126] | 80.8 |  |
| 370 | CN(C)S(=O)(=O)CCCCCCN1CCN(C(c2ccccc2)c2ccc(F)cc2)CC1 (stereo not shown) [Example 68] | 94.5 |  |
| 330 | CCNS(=O)(=O)CCCCCCCCN1CCN(C(c2ccc(F)cc2)c2ccccn2)CC1 (stereo not shown) [Example 34] | 84.8 |  |
| 310 | O=S(=O)(CCCCCCN1CCN(C(c2ccccc2)c2ccccc2)CC1)NC1CCCCC1 [Example 149] | 97.7 |  |
| 710 | O=S(=O)(CCCCN1CCN(C(c2ccccc2)c2ccc(Cl)cc2)CC1)NC1CC1 (stereo not shown) [Example 113] | 87.5 |  |
| 330 | O=S(=O)(CCCCCCN1CCN(C(c2ccccc2)c2ccccn2)CC1)NC1CC1 (stereo not shown) [Example 123] | 83.5 |  |
| 570 | CC(C)NS(=O)(=O)CCCCCN1CCN(C(c2ccccc2)c2ccc(Cl)cc2)CC1 (stereo not shown) [Example 110] | 88.3 |  |
| 400 | CNS(=O)(=O)CCCCCN1CCN(C(c2ccccc2)c2ccc(Cl)cc2)CC1 (stereo not shown) [Example 106] | 90.3 |  |
| 790 | CN(C)S(=O)(=O)CCCCCCN1CCN(C(c2ccc(F)cc2)c2ccccn2)CC1 (stereo not shown) [Example 82] | 86.8 |  |
|  | CN(C)CCOC(c1ccccc1)c1ccccc1 [diphenhydramine, reference compound] |  | inhibition in vivo at 3 mg/kg ([3]; 1 h, 3.0 mg/kg, oral, read-out: immediate edema (1 hr) suppression (%)): 17.8%; inhibition in vivo at 10 mg/kg ([3]; 1 h, 10.0 mg/kg, oral, read-out: immediate edema (1 hr) suppression (%)): 13.3%; inhibition in vivo at 30 mg/kg ([3]; 1 h, 30.0 mg/kg, oral, read-out: immediate edema (1 hr) suppression (%)): 53.3%; inhibition in vivo at 30 mg/kg ([3]; 24 h, 30.0 mg/kg, oral, read-out: late edema (24 hr) suppression (%)): 14.3%; suppression of the immediate allergic reaction (in words) [3]: suppressed the immediate allergic reaction; suppression of the late allergic reaction (in words) [3]: did not suppress the late allergic reaction |
| 620 | CCNS(=O)(=O)CCCCCCCN1CCN(C(c2ccccc2)c2ccc(Cl)cc2)CC1 (stereo not shown) [Example 107] | 87.8 |  |
| 410 | O=S(=O)(CCCCCN1CCN(C(c2ccccc2)c2ccc(Cl)cc2)CC1)NC1CCC1 (stereo not shown) [Example 127] | 90.7 |  |
| 390 | O=S(=O)(CCCCCCCCN1CCN(C(c2ccc(F)cc2)c2ccccn2)CC1)NC1CC1 (stereo not shown) [Example 57] | 90.6 | inhibition in vivo at 1 mg/kg [3, 7]: 31.6%; inhibition in vivo at 0.1 mg/kg [3, 8]: 7.7%; inhibition in vivo at 1 mg/kg [3, 9]: 46.2%; suppression of the late allergic reaction (in words) [3]: showed strong activity of suppressing the late allergic reaction |
| 560 | O=S(=O)(CCCCCN1CCN(C(c2ccccc2)c2ccc(Cl)cc2)CC1)NC1CC1 (stereo not shown) [Example 114] | 83.5 |  |
|  | NS(=O)(=O)CCCCCCN1CCN(C(c2ccccc2)c2ccc(Cl)cc2)CC1 (stereo not shown) [Example 153, potassium 6-[[4-(4-chlorophenyl)phenylmethyl]-1-piperazinyl]hexylsulfonamide] |  | inhibition in vivo at 0.1 mg/kg ([3]; 1 h, 0.1 mg/kg, oral, read-out: immediate edema (1 hr) suppression (%)): 24%; inhibition in vivo at 1 mg/kg [3, 7]: 56%; inhibition in vivo at 0.1 mg/kg [3, 8]: 24%; inhibition in vivo at 1 mg/kg [3, 9]: 48%; % suppression of rat PCA ([1]; 10 mg/kg-po, 1 hour before antigen challenge): 86.2%; mouse acute toxicity (lethal dose) (male ICR mice): > 500 mg/kg |
|  | O=S(=O)(O)CCCCN1CCN(C(c2ccc(F)cc2)c2ccccn2)CC1 (stereo not shown) [Ref. Ex. 4, 4-[4-[4-fluorophenyl-(2-pyridyl)methyl]-1-piperazinyl]butylsulfonic acid, reference compound] | 0 | antiallergic activity / activity of suppressing PCA (in words) ([1]; rat, in vivo): did not show an antiallergic activity |
| 580 | O=S(=O)(CCCCCCN1CCN(C(c2ccccc2)c2ccccc2)CC1)NC1CCC1 [Example 134] | 87.1 |  |
|  | CN1CCC(=C2c3ccccc3CC(=O)c3sccc32)CC1 [ketotifen, reference compound] |  | inhibition in vivo at 2 mg/kg ([1]; Rattus norvegicus, po, 1 h, read-out: % suppression of rat PCA): 47.4 to 73.6%; mouse acute toxicity (lethal dose) (male ICR mice): 500 mg/kg |

| Structure (SMILES) | EC50 [2] [nM] | inhibition in vivo at 10 mg/kg [1, 4] [%] | also measured |
| --- | --- | --- | --- |
| CCNS(=O)(=O)CCCCCCCCN1CCN(C(c2ccccc2)c2ccc(Cl)cc2)CC1 (stereo not shown) [Example 108] | 680 | 82.2 | mouse acute toxicity (lethal dose) (male ICR mice): > 500 mg/kg |
| CNS(=O)(=O)CCCCCCN1CCN(C(c2ccccc2)c2ccc(Cl)cc2)CC1 (stereo not shown) [Example 21] | 510 | 89.7 | mouse acute toxicity (lethal dose) (male ICR mice): > 500 mg/kg |
| CCCNS(=O)(=O)CCCCCCN1CCN(C(c2ccc(F)cc2)c2ccccn2)CC1 (stereo not shown) [Example 39] | 810 | 83.8 | mouse acute toxicity (lethal dose) (male ICR mice): > 500 mg/kg |
| O=S(=O)(CCCCCCCN1CCN(C(c2ccccc2)c2ccc(Cl)cc2)CC1)NC1CCC1 (stereo not shown) [Example 129] | 1800 | 92.2 | mouse acute toxicity (lethal dose) (male ICR mice): > 500 mg/kg |
| CC(C)NS(=O)(=O)CCCCCN1CCN(C(c2ccc(F)cc2)c2ccccn2)CC1 (stereo not shown) [Example 45] | 740 | 84 | mouse acute toxicity (lethal dose) (male ICR mice): > 500 mg/kg |
